One data set relates to A549. In words: Antiproliferative activity against human A549 cells assessed as reduction in cell viability incubated for 48 hrs by CCK8 assay. Particulars: A549, 48 h. It counts as functional, cell-based. Background: Tetrazolium dyes change colour on reduction, which living cells bring about.
Another data set relates to HepG2. In words: Antiproliferative activity against human HepG2 cells assessed as reduction in cell viability incubated for 48 hrs by CCK8 assay. Particulars: HepG2, 48 h. It counts as functional, cell-based.
A further data set deals with MCF7. Put plainly: Antiproliferative activity against human MCF7 cells assessed as reduction in cell viability incubated for 48 hrs by CCK8 assay. It counts as functional, cell-based. Particulars: MCF7, 48 h.
A further data set relates to SGC-7901. Put plainly: Antiproliferative activity against human SGC-7901 cells assessed as reduction in cell viability incubated for 48 hrs by CCK8 assay. It counts as functional, cell-based. Particulars: SGC-7901, 48 h.
The nature of data set [1]: Cytotoxicity against mouse RAW264.7 cells assessed as cell viability at 10 uM incubated for 48 hrs by CCK8 assay. The settings on record: read-out: Activity. It counts as toxicity, cell-based.
Data set [2] is described as follows: Cytotoxicity against human L02 cells assessed as cell viability at 10 uM incubated for 48 hrs by CCK8 assay. It counts as toxicity, cell-based. Particulars: read-out: Activity.
A further data set concerns RAW264.7. Put plainly: Antiinflammatory activity in mouse RAW264.7 assessed as inhibition of LPS-stimulated NO production pretreated with LPS followed by compund addition by Griess reagent based microplate reader assay. It counts as functional, cell-based. Particulars: for pIC50: Mus musculus, RAW264.7. Background: The Griess reaction detects nitrite, a stable product of nitric oxide.

The nature of data set [3]: Cytotoxicity against mouse RAW264.7 cells assessed as reduction in cell viability incubated for 48 hrs by CCK8 assay. It counts as toxicity, cell-based.
A short description of data set [4]: Cytotoxicity against human L02 cells assessed as reduction in cell viability incubated for 48 hrs by CCK8 assay. It counts as toxicity, cell-based.

pIC50: −log10 of the molar value.

The record followed here is ChEMBL document CHEMBL5120881, “Silencing Tautomerization to Isolate Unstable Physalins from Physalis minima” (J Nat Prod, 2022).

In the case of `C=C1C(=O)O[C@@H]2C[C@@]1(C)[C@@H]1C(=O)[C@@]3(O)O[C@]14[C@@]2(C)OC(=O)[C@@]4(O)CC[C@H]1[C@H]3C[C@@H](O)[C@@]2(Cl)CC=CC(=O)[C@]12C`, the pIC50 – broadly, the negative decadic logarithm of the IC50, by convention in mol/L – with A549 was 5.70; in the data set with HepG2 it was 5.31; in the data set on MCF7, 5.68; with SGC-7901, 5.96. Also, the viability at 48 h, 10 µM turned out to be 90.1% in data set [1] and 98.1% in [2]. Further, the “inhibition (INH)” value in the data set on RAW264.7 is recorded as less than 50%.
For `C[C@]12C(=O)C=CCC1=CC[C@@H]1[C@@H]2CC[C@]2(O)C(=O)O[C@@]3(C)[C@H]4C[C@]5(C)[C@@H](CO[C@@]16O[C@@]32[C@H]5C6=O)C(=O)O4` [PHYSALIN B], the pIC50 in the data set with A549 was 4.92; in the data set on HepG2, 4.93; in the data set with MCF7, 4.95; in the data set with SGC-7901 it was 4.92. In addition, the viability at 48 h, 10 µM in [1] stood at 95.8%; in data set [2] it was 97.8%. In the data set with RAW264.7, the “inhibition (INH)” value is on record as less than 50%.
On to `O=C(CCCCCCC(=O)Nc1ccccc1)NO` [VORINOSTAT], for which the results for the viability at 48 h, 10 µM in data set [1] and in data set [2] were 87% and 92.5%, respectively.
As for `C[C@]12C(=O)C=CCC1=CC[C@@H]1[C@@H]2CC[C@]2(O)C(=O)O[C@@]3(C)[C@H]4C[C@@]5(C)[C@@H]6C(=O)[C@@]1(OC[C@@]5(O)C(=O)O4)O[C@@]632`, the negative logarithm of the IC50 (pIC50) in the data set on A549 is 4.91; in the data set on HepG2, 4.77; in the data set with MCF7, 4.98; with SGC-7901 it was 4.92. Besides, the viability at 48 h, 10 µM in data set [1] is 95.5%; in data set [2], 97.3%.
Consider `C=C1C(=O)O[C@@H]2C[C@@]1(C)[C@@H]1C(=O)[C@@]3(O)O[C@]14[C@@]2(C)OC(=O)[C@@]4(O)CC[C@H]1[C@H]3C[C@@H](O)C2=CC=CC(=O)[C@@]21C`, for which the pIC50 in the data set on A549 is 5.15; in the data set on HepG2, 5.08; with MCF7, 4.90; in the data set with SGC-7901, 5.01. The viability at 48 h, 10 µM was 92.3% in data set [1] and 95.2% in data set [2]. Also, in the data set on RAW264.7, the “inhibition (INH)” value was less than 50%.
For the compound `C=C1C(=O)O[C@@H]2C[C@@]1(C)[C@@H]1C(=O)[C@@]3(O)O[C@]14[C@@]2(C)OC(=O)[C@@]4(O)CC[C@H]1[C@H]3CC=C2C=CCC(=O)[C@@]21C`, the pIC50 with A549 is 5.38; with HepG2, 5.03; with MCF7 it was 5.92; with SGC-7901, 5.04. Also, the viability at 48 h, 10 µM in [1] is 91.4%; in data set [2], 95.4%. For the same compound, in the data set with RAW264.7, the “inhibition (INH)” value was less than 50%.
Regarding `C[C@]12C(=O)CC=CC1=CC[C@@H]1[C@@H]2CC[C@]2(O)C(=O)O[C@@]3(C)[C@H]4C[C@]5(C)[C@@H](CO[C@]16O[C@@]32[C@H]5C6=O)C(=O)O4`, the pIC50 was 5.37 in the data set with A549, 5.01 in the data set on HepG2, 5.60 in the data set with MCF7 and 5.05 with SGC-7901. Also, the viability at 48 h, 10 µM turned out to be 94.2% in [1] and 92.5% in data set [2]. For the same compound, the “inhibition (INH)” value with RAW264.7 is listed as less than 50%.
Consider `CO[C@]12C=CCC(=O)[C@]1(C)[C@H]1CC[C@]3(O)C(=O)O[C@@]4(C)[C@H]5C[C@]6(C)[C@@H](CO[C@]7(O[C@@]43[C@H]6C7=O)[C@@H]1C[C@H]2O)C(=O)O5`, for which the pIC50 with A549 was less than 4.30; in the data set with HepG2 it was less than 4.30; in the data set with MCF7 it was less than 4.30; in the data set on SGC-7901, less than 4.30; in the data set on RAW264.7, 4.62. Moreover, the IC50 at 48 h in data set [3] and in [4] was greater than 50 µM throughout.
For `CO[C@]12CC=CC(=O)[C@]1(C)[C@H]1CC[C@]3(O)C(=O)O[C@@]4(C)[C@H]5C[C@]6(C)[C@@H](CO[C@@]7(O[C@@]43[C@H]6C7=O)[C@@H]1C[C@H]2O)C(=O)O5`, the pIC50 in the data set on A549 is less than 4.30; in the data set on HepG2, less than 4.30; in the data set on MCF7, less than 4.30; with SGC-7901 it was less than 4.30; in the data set on RAW264.7 it was 4.12. In addition, the IC50 at 48 h in [3] and in data set [4] was greater than 50 µM each time.
Consider `C[C@]12C(=O)C=CC=C1[C@H](O)C[C@@H]1[C@@H]2CC[C@]2(O)C(=O)O[C@@]3(C)[C@H]4C[C@@]5(C)[C@@H]6C(=O)[C@@]1(OC[C@@]5(O)C(=O)O4)O[C@@]632`, for which the pIC50 in the data set on A549 was less than 4.30; in the data set with HepG2, less than 4.30; in the data set on MCF7, less than 4.30; in the data set on SGC-7901 it was less than 4.30; in the data set on RAW264.7 it was 5.19. Moreover, the IC50 at 48 h in data set [3] and in [4] was greater than 50 µM in each case.
For the compound `C[C@@]12C[C@H]3OC(=O)[C@@H]1CO[C@@]14O[C@@]5([C@H]2C1=O)[C@@]3(C)OC(=O)[C@@]5(O)CC[C@H]1[C@H]4C[C@@H](O)[C@@]2(OC(=O)c3cccnc3)CC=CC(=O)[C@]12C`, the pIC50 with A549 was less than 4.30; in the data set on HepG2 it was less than 4.30; with MCF7, less than 4.30; with SGC-7901 it was less than 4.30; with RAW264.7, 4.87. The IC50 at 48 h in [3] and in data set [4] was greater than 50 µM in each case.
Take `C=C1C(=O)O[C@@H]2C[C@@]1(C)[C@@H]1C(=O)[C@@]3(O)O[C@]14[C@@]2(C)OC(=O)[C@@]4(O)CC[C@H]1[C@H]3[C@H](O)C=C2CC=CC(=O)[C@@]21C`: the negative-log IC50 (pIC50) in the data set with A549 was less than 4.30; in the data set on HepG2, less than 4.30; in the data set on MCF7, less than 4.30; in the data set with SGC-7901, less than 4.30; with RAW264.7, 5.02. The IC50 at 48 h in data set [3] and in data set [4] was greater than 50 µM each time.
Regarding `C[C@@]12C[C@H]3OC(=O)[C@]1(O)CO[C@@]14O[C@@]5([C@H]2C1=O)[C@@]3(C)OC(=O)[C@@]5(O)CC[C@H]1[C@H]4C[C@H](O)[C@]2(O)CC=CC(=O)[C@]12C`, the pIC50 with A549 is less than 4.30; in the data set with HepG2, less than 4.30; with MCF7 it was less than 4.30; in the data set with SGC-7901 it was less than 4.30; in the data set with RAW264.7, 4.83. In addition, the IC50 at 48 h in data set [3] and in data set [4] was greater than 50 µM each time.
As for `C[C@]12C(=O)CC=CC1=CC[C@@H]1[C@@H]2CC[C@]2(O)C(=O)O[C@@]3(C)[C@H]4C[C@@]5(C)[C@@H]6C(=O)[C@@]1(OC[C@@]5(O)C(=O)O4)O[C@@]632`, the pIC50 in the data set with A549 is less than 4.30; in the data set with HepG2 it was less than 4.30; in the data set with MCF7, less than 4.30; in the data set on SGC-7901, less than 4.30; with RAW264.7, 4.76. Moreover, the IC50 at 48 h in data set [3] and in [4] was greater than 50 µM each time.
For `C[C@@]12C[C@H]3OC(=O)[C@@H]1CO[C@@]14O[C@]56[C@H]2[C@]1(O)[C@H](C[C@]5(O)C(=O)O[C@@]36C)[C@H]1[C@H]4CC(O)[C@]2(O)CC=CC(=O)[C@]12C` (some centres undefined), the pIC50 with A549 is less than 4.30; with HepG2, less than 4.30; in the data set on MCF7, less than 4.30; in the data set with SGC-7901, less than 4.30; with RAW264.7, 5.05. The IC50 at 48 h in data set [3] and in data set [4] was greater than 50 µM in each case.
As for `C[C@@]12C[C@H]3OC(=O)[C@@H]1CO[C@]14O[C@@]5([C@H]2C1=O)[C@@]3(C)OC(=O)[C@@]5(O)CC[C@H]1[C@H]4C[C@H]2O[C@]23CC=CC(=O)[C@]13C`, the pIC50 with A549 is less than 4.30; in the data set with HepG2 it was less than 4.30; with MCF7, less than 4.30; in the data set with SGC-7901, less than 4.30; in the data set on RAW264.7 it was 5.10. For the same compound, the IC50 at 48 h in data set [3] and in [4] was greater than 50 µM throughout.
For the compound `C[C@]12C(=O)C=CC=C1[C@@H](O)C[C@@H]1[C@@H]2CC[C@@]2(O)C(=O)O[C@@]3(C)[C@H]4C[C@]5(C)[C@@H](CO[C@@]16O[C@]23[C@H]5C6=O)C(=O)O4` [PHYSALIN G], the pIC50 in the data set with A549 was less than 4.30; in the data set on HepG2, less than 4.30; in the data set on MCF7 it was less than 4.30; with SGC-7901, less than 4.30; with RAW264.7 it was 4.87. Also, the IC50 at 48 h in data set [3] and in [4] was greater than 50 µM in each case.
`C[C@@]12C[C@H]3OC(=O)[C@@H]1CO[C@]14O[C@@]5([C@H]2C1=O)[C@@]3(C)OC(=O)[C@@]5(O)CC[C@H]1[C@H]4C[C@@H](O)[C@@]2(O)CC=CC(=O)[C@]12C`: the pIC50 with A549 was less than 4.30; in the data set with HepG2, less than 4.30; in the data set on MCF7, less than 4.30; in the data set on SGC-7901 it was less than 4.30; with RAW264.7, 4.30. Further, the IC50 at 48 h in data set [3] and in data set [4] was greater than 50 µM throughout.
Turning to `COC(=O)C(C)(O)[C@@]1(C)C[C@@H](O)[C@]2(C)OC(=O)[C@@]3(O)CC[C@H]4[C@@H](C[C@@H](O)[C@@]5(O)CC=CC(=O)[C@]45C)[C@]4(O)O[C@@]23[C@H]1C4=O` (some centres undefined), the pIC50 with A549 is less than 4.30; in the data set on HepG2, less than 4.30; with MCF7, less than 4.30; with SGC-7901 it was less than 4.30; with RAW264.7 it was 5.54. Besides, the IC50 at 48 h in data set [3] and in data set [4] was greater than 50 µM in each case.
In the case of `C[C@@]12C[C@H]3OC(=O)[C@@H]1CO[C@@]14O[C@]56[C@H]2[C@]1(O)[C@H](C[C@]5(O)C(=O)O[C@@]36C)[C@H]1[C@H]4CC[C@]2(O)CC=CC(=O)[C@]12C`, the pIC50 is less than 4.30 with A549; less than 4.30 with HepG2; less than 4.30 in the data set with MCF7; less than 4.30 in the data set on SGC-7901; 5.44 in the data set on RAW264.7. The IC50 at 48 h in data set [3] and in data set [4] was greater than 50 µM each time.
